The source of these data is patent US11555821B2, “CA IX-NIR dyes and their uses” (On Target Laboratories, Inc., priority 2016, dated 2023).

Series [1] relates to SKRC52 human renal tumor xenograft. Nature of the series: Whole body fluorescence imaging of SKRC52 human renal tumor xenograft bearing mouse (IVIS imager). To be noted: 10 nmol. It counts as in vivo. On the procedure:
SKRC52 human renal tumor xenograft bearing mouse was injected with 10 nmol of 54 and imaged with IVIS imager (ex=745 nm, em=ICG, exposure time=1 s) at different time intervals.
SKRC52 human renal tumor xenograft bearing mouse was injected with 10 nmol of 55 and imaged with IVIS imager (ex=745 nm, em=ICG, exposure time=1 s) at different time intervals.
SKRC52 human renal tumor xenograft bearing mouse was injected with 10 nmol of 60 and imaged with IVIS imager (ex=745 nm, em=ICG, exposure time=[…]) at different time intervals.
SKRC52 human renal tumor xenograft bearing mouse was injected with 10 nmol of 61 and imaged with IVIS imager (ex=745 nm, em=ICG, exposure time=[…]) at different time intervals.
SKRC52 human renal tumor xenograft bearing mouse was injected with 10 nmol of 62 and imaged with IVIS imager (ex=745 nm, em=ICG, exposure time=1 s) at different time intervals.
SKRC52 human renal tumor xenograft bearing mouse was injected with 10 nmol of 65 and imaged with IVIS imager (ex=745 nm, em=ICG, exposure time=1 s) at different time intervals.
SKRC52 human renal tumor xenograft bearing mouse was injected with 10 nmol of 69 and imaged with IVIS imager (ex=745 nm, em=ICG, exposure time=1 s) at different time intervals.
SKRC52 human renal tumor xenograft bearing mouse was injected with 10 nmol of 70 and imaged with IVIS imager (ex=745 nm, em=ICG, exposure time=1 s) at different time intervals.
SKRC52 human renal tumor xenograft bearing mouse was injected with 10 nmol 72 and imaged with IVIS imager (ex=745 nm, em=ICG, exposure time=1 s) at different time intervals
SKRC52 human renal tumor xenograft bearing mouse was injected with 10 nmol of 76 and imaged with IVIS imager (ex=745 nm, em=ICG, exposure time=1 s) at different time intervals
SKRC52 human renal tumor xenograft bearing mouse was injected with 10 nmol of 77 and imaged with IVIS imager (ex=745 nm, em=ICG, exposure time=1 s) at different time intervals
SKRC52 human renal tumor xenograft bearing mouse was injected with 10 nmol of 80 and imaged with IVIS imager (ex=745 nm, em=ICG, exposure time=1 s) at different time intervals
SKRC52 human renal tumor xenograft bearing mouse was injected with 10 nmol of 81 and imaged with IVIS imager (ex=745 nm, em=ICG, exposure time=1 s) at different time intervals
SKRC52 human renal tumor xenograft bearing mouse was injected with 10 nmol of 85 and imaged with IVIS imager (ex=745 nm, em=ICG, exposure time=1 s) at different time intervals
SKRC52 human renal tumor xenograft bearing mouse was injected with 10 nmol of 86 and imaged with IVIS imager (ex=745 nm, em=ICG, exposure time=1 s) at different time intervals
SKRC52 human renal tumor xenograft bearing mouse was injected with 10 nmol of 87 and imaged with IVIS imager (ex=745 nm, em=ICG, exposure time=1 s) at different time intervals
SKRC52 human renal tumor xenograft bearing mouse was injected with 10 nmol of 88 and imaged with IVIS imager (ex=745 nm, em=ICG, exposure time=1 s) at different time intervals
SKRC52 human renal tumor xenograft bearing mouse was injected with 10 nmol of 89 and imaged with IVIS imager (ex=745 nm, em=ICG, exposure time=1 s) at different time intervals
SKRC52 human renal tumor xenograft bearing mouse was injected with 10 nmol of 90 and imaged with IVIS imager (ex=745 nm, em=ICG, exposure time=1 s) at different time intervals
SKRC52 human renal tumor xenograft bearing mouse was injected with 10 nmol of 93 and imaged with IVIS imager (ex=745 nm, em=ICG, exposure time=1 s) at different time intervals
SKRC52 human renal tumor xenograft bearing mouse was injected with 10 nmol of 95 and imaged with IVIS imager (ex=745 nm, em=ICG, exposure time=1 s) at different time intervals
SKRC52 human renal tumor xenograft bearing mouse was injected with 10 nmol of 99 and imaged with IVIS imager (ex=745 nm, em=ICG, exposure time=1 s) at different time intervals […]
(Xenograft models place foreign cells or tissue in a host animal.)

For series [2] the following is noted: in the presence and absence of light; cited from earlier work.
Where [3] appears, read: within 2-24 hours after administering to the animal.
The mark [4] stands for this setting: imaged at different time intervals.

Turning to `CC1(C)C(/C=C/C2=C(Oc3ccc(C[C@H](NC(=O)CCOCCOCCNc4c(F)c(S(N)(=O)=O)c(F)c(F)c4S(=O)(=O)CCO)C(=O)O)cc3)C(=C/C=C3/N(CCCCS(=O)(=O)O)c4ccc(S(=O)(=O)O)cc4C3(C)C)/CCC2)=[N+](CCCCS(=O)(=O)[O-])c2ccc(S(=O)(=O)O)cc21` [Compound 86], in series [1], the “brightness compared to 60 and 61” value is reported as “less brighter”. The whole-body imaging data result in series [1] (setting [3]) is reported as “very good”.

For `CC(C)C[C@H](Nc1c(F)c(S(N)(=O)=O)c(F)c(F)c1S(=O)(=O)CCC(=O)NCCOCCOCCC(=O)N[C@@H](Cc1ccc(OC2=C(/C=C/C3=[N+](CCCCS(=O)(=O)[O-])c4ccc(S(=O)(=O)O)cc4C3(C)C)CCC/C2=C\C=C2\N(CCCCS(=O)(=O)O)c3ccc(S(=O)(=O)O)cc3C2(C)C)cc1)C(=O)O)C(=O)OCc1ccccc1` [Compound 76], in series [1] (setting [4]), the “tumor-to-background ratio (TBR)” value was “excellent” and the tumor-to-skin ratio entry is listed as “excellent”. Besides, the “accumulation retained in the tumor (fluorescence over 24 hours)” value in series [1] is reported as “very high accumulation”. The whole-body imaging data entry in series [1] (setting [3]) is listed as “very good”.

For `CN1/C(=C/C=C2\CCCC(/C=C/C3=[N+](C)c4ccc5ccccc5c4C3(C)C)=C2Cl)C(C)(C)c2c1ccc1ccccc21.Cc1ccc(S(=O)(=O)[O-])cc1` [IR813], the in vitro cytotoxicity result in series [2] was “significant values of cytotoxicity”.

On to `CC1(C)C(=CC=C2CCCC(C=CC3=[N+](CCCCS(=O)(=O)[O-])c4ccc5ccccc5c4C3(C)C)=C2Cl)N(CCCCS(=O)(=O)[O-])c2ccc3ccccc3c21.[Na+]` [IR820], for which the in vitro cytotoxicity result in series [2] is listed as “no major cytotoxic effects”.

`CC1(C)C(/C=C/C2=C(Oc3ccc(C[C@H](NC(=O)CCOCCOCCNC(=O)CCS(=O)(=O)c4c(F)c(F)c(S(N)(=O)=O)c(F)c4NC4CCCCC4)C(=O)O)cc3)C(=C/C=C3/N(CCCCS(=O)(=O)O)c4ccc(S(=O)(=O)O)cc4C3(C)C)/CCC2)=[N+](CCCCS(=O)(=O)[O-])c2ccc(S(=O)(=O)O)cc21` [Compound 60]: in series [1] (setting [4]), the “tumor-to-background ratio (TBR)” value was “excellent” and the tumor-to-skin ratio entry is reported as “excellent”. For the same compound, the “accumulation retained in the tumor (fluorescence over 24 hours)” value in series [1] is on record as “very high accumulation”. In series [1] (setting [3]), the whole-body imaging data result is “very good”.

Turning to `CC1(C)C(/C=C/C2=C(Oc3ccc(C[C@H](NC(=O)CCOCCOCCNC(=O)CCS(=O)(=O)c4ccc(S(N)(=O)=O)cc4NC4CCCCCCC4)C(=O)O)cc3)C(=C/C=C3/N(CCCCS(=O)(=O)O)c4ccc(S(=O)(=O)O)cc4C3(C)C)/CCC2)=[N+](CCCCS(=O)(=O)[O-])c2ccc(S(=O)(=O)O)cc21` [Compound 85], in series [1], the “tumor fluorescence intensity and tumor-to-background ratio compared to the compound 61” value was “less”; the “accumulation retained in the tumor (fluorescence over 24 hours)” value is on record as “very high accumulation”. In series [1] (setting [4]), the “tumor-to-background ratio (TBR)” value is listed as “excellent” and the tumor-to-skin ratio result is on record as “excellent”. Moreover, the whole-body imaging data result in series [1] (setting [3]) is “very good”.

For `CC1(C)C(/C=C/C=C/C=C/C=C2\N(CCCCS(=O)(=O)[O-])c3ccc4ccccc4c3C2(C)C)=[N+](CCCCS(=O)(=O)[O-])c2ccc3ccccc3c21.[Na+]` [IR125], the in vitro cytotoxicity entry in series [2] is on record as “significant values of cytotoxicity”.

Consider `CC(C)C[C@H](Nc1c(F)c(S(N)(=O)=O)c(F)c(F)c1S(=O)(=O)CCC(=O)NCCOCCOCCC(=O)N[C@@H](Cc1ccc(OC2=C(/C=C/C3=[N+](CCCCS(=O)(=O)[O-])c4ccc(S(=O)(=O)O)cc4C3(C)C)CCC/C2=C\C=C2\N(CCCCS(=O)(=O)O)c3ccc(S(=O)(=O)O)cc3C2(C)C)cc1)C(=O)O)C(=O)O` [Compound 77], for which, in series [1] (setting [4]), the “tumor-to-background ratio (TBR)” value is given as “excellent” and the tumor-to-skin ratio entry is “excellent”. In series [1], the “accumulation retained in the tumor (fluorescence over 24 hours)” value is reported as “very high accumulation”. For the same compound, the whole-body imaging data result in series [1] (setting [3]) is “very good”.

`CC1(C)C(/C=C/C2=C(Oc3ccc(C[C@H](NC(=O)CCOCCOCCNC(=O)CCS(=O)(=O)c4c(F)c(F)c(S(N)(=O)=O)c(F)c4NC4CCC(F)(F)CC4)C(=O)O)cc3)C(=C/C=C3/N(CCCCS(=O)(=O)O)c4ccc(S(=O)(=O)O)cc4C3(C)C)/CCC2)=[N+](CCCCS(=O)(=O)[O-])c2ccc(S(=O)(=O)O)cc21` [Compound 72]: in series [1] (setting [4]), the “tumor-to-background ratio (TBR)” value is reported as “excellent” and the tumor-to-skin ratio result is given as “excellent”. The “accumulation retained in the tumor (fluorescence over 24 hours)” value in series [1] was “very high accumulation”. In addition, the whole-body imaging data result in series [1] (setting [3]) is given as “very good”.

For the compound `CN(C)C(N(c1c(F)c(S(N)(=O)=O)c(F)c(F)c1S(=O)(=O)CCC(=O)NCCOCCOCCC(=O)N[C@@H](Cc1ccc(OC2=C(/C=C/C3=[N+](CCCCS(=O)(=O)O)c4ccc(S(=O)(=O)O)cc4C3(C)C)CCC/C2=C\C=C2\N(CCCCS(=O)(=O)O)c3ccc(S(=O)(=O)O)cc3C2(C)C)cc1)C(=O)O)C1CCCCCCC1)=[N+](C)C` [Compound 104], in series [1] (setting [4]), the “tumor-to-background ratio (TBR)” value is recorded as “excellent” and the tumor-to-skin ratio result is listed as “excellent”. In series [1], the “accumulation retained in the tumor (fluorescence over 24 hours)” value is listed as “very high accumulation”. For the same compound, in series [1] (setting [3]), the whole-body imaging data entry is “good”.

As to `CC1(C)C(/C=C/C2=C(Oc3ccc(C[C@H](NC(=O)CCS(=O)(=O)c4c(F)c(F)c(S(N)(=O)=O)c(F)c4NC4CCCCCCC4)C(=O)O)cc3)C(=C/C=C3/N(CCCCS(=O)(=O)O)c4ccc(S(=O)(=O)O)cc4C3(C)C)/CCC2)=[N+](CCCCS(=O)(=O)[O-])c2ccc(S(=O)(=O)O)cc21` [Compound 62], in series [1] (setting [4]), the “tumor-to-background ratio (TBR)” value is given as “excellent” and the tumor-to-skin ratio entry is reported as “excellent”. Moreover, in series [1], the “accumulation retained in the tumor (fluorescence over 24 hours)” value is given as “very high accumulation”. In series [1] (setting [3]), the whole-body imaging data result was “very good”.

As to `CC1(C)C(=CC=C2CCCC(C=CC3=[N+](CCCCS(=O)(=O)[O-])c4ccc(S(=O)(=O)O)cc4C3(C)C)=C2Oc2ccc(CC(NC(=O)CCOCCOCCNC(=O)CCS(=O)(=O)c3c(F)c(F)c(S(N)(=O)=O)c(F)c3NC(c3ccccc3)c3ccccc3)C(=O)O)cc2)N(CCCCS(=O)(=O)O)c2ccc(S(=O)(=O)O)cc21` (stereo not shown) [Compound 88], the whole-body imaging data result in series [1] (after 8 hours of administering) is “good”. Further, in series [1] (at 24 hour time point), the “tumor-to-background ratio (TBR)” value is given as “excellent” and the tumor-to-skin ratio result was “excellent”.
